From ChEMBL document CHEMBL1201862, “PubChem BioAssay data set” (2004)
Each block holds one molecule with its values, some of them ahead of it. Activity calls are given as the source filed them.

What was measured:
BJ [1] = test: growth inhibition of engineered Ras-driven BJ cells – cell-based, alamar blue fluorescence, cherrypicked samples, dose response (AID 2631); type: functional; settings: Homo sapiens;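 also: confirmatory dose-response assay in RAS-dependent BJ fibroblasts engineered with TERT, LT and ST, with cytotoxicity read by fluorescence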
BJ [2] = test: BJ-TERT-LT-ST fibroblast viability loss – cell-based, RAS-independent, luminescence, dose response (AID 1935); type: functional; settings: Homo sapiens;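 also: BJ fibroblasts immortalized with TERT plus LT and ST oncogenes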
BJ [3] = test: cells; type: functional, cell-based; settings: Homo sapiens
BJ [4] = test: BJ-TERT fibroblast viability loss – cell-based, RAS-independent, luminescence, dose response (AID 1933); type: functional; settings: Homo sapiens
[5] = DRD fibroblast viability loss – cell-based, non-viral oncogenic, luminescence, dose response (AID 1934); type: functional; settings: Homo sapiens
INS1 = test: INS-1E survival protection against cytokine death – cell-based, luminescence, retest, dose response (AID 449756); type: functional; settings: Rattus norvegicus;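 also: cell death triggered by IL-1 beta plus TNF-alpha plus IFN-gamma mixture; protective hits raise ATP signal compared with cytokine alone wells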
[6] = molecular target: T1, Apoptotic protease-activating factor 1 (Homo sapiens, UniProt O14727); type: functional
T1 sequence (O14727 whole entry): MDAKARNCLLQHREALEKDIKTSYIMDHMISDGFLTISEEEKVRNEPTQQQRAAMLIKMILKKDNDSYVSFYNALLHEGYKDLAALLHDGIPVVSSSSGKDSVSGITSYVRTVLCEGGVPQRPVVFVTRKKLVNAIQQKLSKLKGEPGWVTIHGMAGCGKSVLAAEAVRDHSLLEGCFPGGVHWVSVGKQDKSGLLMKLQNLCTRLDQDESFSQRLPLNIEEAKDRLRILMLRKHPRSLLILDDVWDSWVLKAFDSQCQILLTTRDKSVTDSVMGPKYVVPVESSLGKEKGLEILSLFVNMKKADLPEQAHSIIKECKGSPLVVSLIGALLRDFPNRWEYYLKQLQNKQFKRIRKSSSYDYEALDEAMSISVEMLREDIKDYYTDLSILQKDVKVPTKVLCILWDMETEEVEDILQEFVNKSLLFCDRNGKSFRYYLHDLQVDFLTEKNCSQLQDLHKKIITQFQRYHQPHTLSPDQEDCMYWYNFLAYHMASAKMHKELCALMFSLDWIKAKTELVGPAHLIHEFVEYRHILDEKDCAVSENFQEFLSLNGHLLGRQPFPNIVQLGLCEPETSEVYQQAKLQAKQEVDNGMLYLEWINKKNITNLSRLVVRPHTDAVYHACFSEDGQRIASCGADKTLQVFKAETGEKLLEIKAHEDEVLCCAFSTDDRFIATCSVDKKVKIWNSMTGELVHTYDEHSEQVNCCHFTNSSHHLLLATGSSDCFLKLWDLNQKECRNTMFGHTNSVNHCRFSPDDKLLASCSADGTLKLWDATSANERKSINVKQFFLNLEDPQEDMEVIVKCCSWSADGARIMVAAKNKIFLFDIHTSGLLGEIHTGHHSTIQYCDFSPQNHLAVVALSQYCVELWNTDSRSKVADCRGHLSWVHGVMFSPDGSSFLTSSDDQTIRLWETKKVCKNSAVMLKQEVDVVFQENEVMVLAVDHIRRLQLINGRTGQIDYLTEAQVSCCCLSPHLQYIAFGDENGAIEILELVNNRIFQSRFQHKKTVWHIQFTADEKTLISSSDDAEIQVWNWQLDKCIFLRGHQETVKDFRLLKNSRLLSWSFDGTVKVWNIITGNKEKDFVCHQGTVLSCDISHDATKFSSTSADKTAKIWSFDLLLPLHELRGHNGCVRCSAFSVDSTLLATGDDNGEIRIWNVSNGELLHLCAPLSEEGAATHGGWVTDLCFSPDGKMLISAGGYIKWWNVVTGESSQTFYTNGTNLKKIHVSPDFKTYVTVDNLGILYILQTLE

[7] = molecular target: T2, Sentrin-specific protease 7 (Homo sapiens, UniProt Q9BQF6); test: inhibition of human SENP7 cleavage activity – biochemical, luminescence, SAR follow-up (AID 504497); type: functional
T2 sequence (Q9BQF6 whole entry): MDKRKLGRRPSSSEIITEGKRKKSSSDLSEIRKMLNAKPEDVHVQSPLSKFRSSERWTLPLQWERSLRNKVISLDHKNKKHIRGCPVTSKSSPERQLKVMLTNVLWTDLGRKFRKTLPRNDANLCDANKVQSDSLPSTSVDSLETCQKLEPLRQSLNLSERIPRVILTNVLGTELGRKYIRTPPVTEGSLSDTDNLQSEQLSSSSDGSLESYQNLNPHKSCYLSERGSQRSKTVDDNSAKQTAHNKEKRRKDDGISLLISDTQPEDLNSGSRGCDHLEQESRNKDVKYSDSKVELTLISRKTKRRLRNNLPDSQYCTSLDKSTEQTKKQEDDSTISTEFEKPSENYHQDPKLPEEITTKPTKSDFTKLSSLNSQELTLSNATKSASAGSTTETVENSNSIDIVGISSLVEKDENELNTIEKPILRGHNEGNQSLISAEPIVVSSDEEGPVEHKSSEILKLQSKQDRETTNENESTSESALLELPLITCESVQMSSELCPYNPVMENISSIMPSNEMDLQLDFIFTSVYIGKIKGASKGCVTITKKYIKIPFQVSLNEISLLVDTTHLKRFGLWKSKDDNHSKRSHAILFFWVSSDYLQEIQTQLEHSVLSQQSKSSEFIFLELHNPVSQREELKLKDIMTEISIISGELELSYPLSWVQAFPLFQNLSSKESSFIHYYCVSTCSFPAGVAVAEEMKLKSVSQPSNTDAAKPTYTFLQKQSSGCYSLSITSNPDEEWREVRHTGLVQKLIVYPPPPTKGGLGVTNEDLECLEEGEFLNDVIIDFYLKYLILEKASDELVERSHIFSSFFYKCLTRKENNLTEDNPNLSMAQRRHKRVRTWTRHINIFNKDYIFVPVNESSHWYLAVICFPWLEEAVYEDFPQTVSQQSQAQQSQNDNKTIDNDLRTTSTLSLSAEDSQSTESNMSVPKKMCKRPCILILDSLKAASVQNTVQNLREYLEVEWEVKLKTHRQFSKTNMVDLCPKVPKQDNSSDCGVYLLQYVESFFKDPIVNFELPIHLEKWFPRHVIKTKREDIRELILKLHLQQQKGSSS

Caspase-3 = molecular target: T3, Caspase-3 (Homo sapiens, UniProt P42574); test: SAR Analysis of small molecule inhibitors of Sentrin-specific proteases (SENPs) using a Caspase-3 Selectivity assay. [Related pubchem assays (depositor defined):AID2540, AID2599, AID434973, AID489001]; type: functional
T3 sequence (P42574 whole entry): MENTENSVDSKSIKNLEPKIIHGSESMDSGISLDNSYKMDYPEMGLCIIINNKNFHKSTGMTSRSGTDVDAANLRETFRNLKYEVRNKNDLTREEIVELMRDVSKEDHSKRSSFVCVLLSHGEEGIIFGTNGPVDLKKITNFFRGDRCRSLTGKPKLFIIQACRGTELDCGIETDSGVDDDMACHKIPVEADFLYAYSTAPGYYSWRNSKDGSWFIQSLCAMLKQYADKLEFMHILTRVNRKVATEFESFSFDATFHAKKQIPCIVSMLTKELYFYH

[8] = molecular target: T4, Sentrin-specific protease 8 (Homo sapiens, UniProt Q96LD8); test: inhibition of human SENP8 cleavage activity – biochemical, luminescence, SAR follow-up (AID 504501); type: functional
T4 sequence (Q96LD8 whole entry): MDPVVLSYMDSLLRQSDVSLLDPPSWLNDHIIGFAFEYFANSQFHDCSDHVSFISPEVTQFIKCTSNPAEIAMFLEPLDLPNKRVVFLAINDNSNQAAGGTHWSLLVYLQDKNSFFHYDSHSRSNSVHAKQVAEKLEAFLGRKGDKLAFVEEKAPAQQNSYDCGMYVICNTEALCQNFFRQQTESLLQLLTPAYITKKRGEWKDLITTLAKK

[9] = molecular target: T5, Sentrin-specific protease 6 (Homo sapiens, UniProt Q9GZR1); test: SAR Analysis of small molecule inhibitors of Sentrin-specific protease 6 (SENP6) using a Luminescent assay. [Related pubchem assays (depositor defined):AID2582, AID2599]; type: functional
T5 sequence (Q9GZR1 whole entry): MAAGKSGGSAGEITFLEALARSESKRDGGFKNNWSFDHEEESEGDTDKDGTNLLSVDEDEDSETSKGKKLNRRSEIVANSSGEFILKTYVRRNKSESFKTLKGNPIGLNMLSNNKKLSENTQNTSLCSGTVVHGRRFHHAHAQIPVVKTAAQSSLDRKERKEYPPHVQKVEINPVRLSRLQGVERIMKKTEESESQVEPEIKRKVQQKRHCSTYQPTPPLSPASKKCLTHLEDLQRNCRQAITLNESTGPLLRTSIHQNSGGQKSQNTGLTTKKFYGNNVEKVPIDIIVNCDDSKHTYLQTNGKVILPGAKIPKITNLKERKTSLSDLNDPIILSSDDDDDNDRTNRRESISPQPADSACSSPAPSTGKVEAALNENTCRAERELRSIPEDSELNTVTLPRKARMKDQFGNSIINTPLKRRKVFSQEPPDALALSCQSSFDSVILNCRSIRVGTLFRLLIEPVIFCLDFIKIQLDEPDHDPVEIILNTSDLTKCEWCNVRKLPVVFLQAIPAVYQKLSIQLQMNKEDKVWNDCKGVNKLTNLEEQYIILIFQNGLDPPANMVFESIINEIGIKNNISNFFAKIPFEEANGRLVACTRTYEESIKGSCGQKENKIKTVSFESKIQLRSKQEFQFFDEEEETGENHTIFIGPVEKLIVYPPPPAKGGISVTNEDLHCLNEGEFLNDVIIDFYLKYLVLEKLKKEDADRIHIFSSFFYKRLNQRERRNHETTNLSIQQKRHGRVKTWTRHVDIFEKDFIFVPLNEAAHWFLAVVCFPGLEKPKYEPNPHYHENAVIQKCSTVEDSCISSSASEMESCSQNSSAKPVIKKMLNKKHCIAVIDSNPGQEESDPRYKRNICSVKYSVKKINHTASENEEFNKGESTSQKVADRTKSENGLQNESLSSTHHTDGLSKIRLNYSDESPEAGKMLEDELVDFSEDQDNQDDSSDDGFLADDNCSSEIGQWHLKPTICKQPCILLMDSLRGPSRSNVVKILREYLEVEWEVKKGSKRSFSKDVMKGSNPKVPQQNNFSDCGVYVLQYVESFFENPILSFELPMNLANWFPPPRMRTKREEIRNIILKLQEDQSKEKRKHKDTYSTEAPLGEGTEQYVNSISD

[10] = molecular target: Potassium voltage-gated channel subfamily KQT member 2 (Rattus norvegicus, UniProt O88943); test: blockers of KCNQ2 channel current – cell-based, automated electrophysiology, set II, rat KCNQ2, dose response (AID 588637); type: functional
H9c2 = test: cells; type: functional, cell-based; settings: Rattus norvegicus, H9c2, Myocardium;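 also: confirmatory concentration-response retest of ultra-high-throughput screening hits for modulation of myocardial damage; cell death induced by hydrogen peroxide oxidative stress; compound pretreatment for 60 min then peroxide exposure for 2 h; potency is for protecting the cells against peroxide damage rather than for killing them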
[11] = fluconazole-exposed Candida albicans growth modulators – fluorescence, retest, confirmation (AID 2467); type: functional, cell-based
[12] = NIH-3T3 fibroblast cytotoxicity, dose response, cytotoxicity control, cell-based, fluorescence, Alamar Blue, secondary assay (AID 2327); type: functional;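 also: NIH-3T3 mouse fibroblasts cultured with fluconazole at 8 µg/mL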
[13] = molecular target: T6, Serine/threonine-protein phosphatase (Candida dubliniensis (strain CD36 / CBS 7987 / NCPF 3949 / NRRLY-17841) (Yeast), UniProt B9W6M3); test: blockers of CaCl2-induced CDRE-lacZ signaling – S. cerevisiae, luminescence, secondary, dose response (AID 2388); type: functional, cell-based;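 also: yeast reporter cells carrying a calcineurin-responsive lacZ construct stimulated with calcium chloride; luminescent beta-galactosidase reporter signal in whole cells rather than isolated phosphatase activity; potency for inhibition where a drop in reporter signal means calcineurin blockade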
T6 sequence (B9W6M3 whole entry): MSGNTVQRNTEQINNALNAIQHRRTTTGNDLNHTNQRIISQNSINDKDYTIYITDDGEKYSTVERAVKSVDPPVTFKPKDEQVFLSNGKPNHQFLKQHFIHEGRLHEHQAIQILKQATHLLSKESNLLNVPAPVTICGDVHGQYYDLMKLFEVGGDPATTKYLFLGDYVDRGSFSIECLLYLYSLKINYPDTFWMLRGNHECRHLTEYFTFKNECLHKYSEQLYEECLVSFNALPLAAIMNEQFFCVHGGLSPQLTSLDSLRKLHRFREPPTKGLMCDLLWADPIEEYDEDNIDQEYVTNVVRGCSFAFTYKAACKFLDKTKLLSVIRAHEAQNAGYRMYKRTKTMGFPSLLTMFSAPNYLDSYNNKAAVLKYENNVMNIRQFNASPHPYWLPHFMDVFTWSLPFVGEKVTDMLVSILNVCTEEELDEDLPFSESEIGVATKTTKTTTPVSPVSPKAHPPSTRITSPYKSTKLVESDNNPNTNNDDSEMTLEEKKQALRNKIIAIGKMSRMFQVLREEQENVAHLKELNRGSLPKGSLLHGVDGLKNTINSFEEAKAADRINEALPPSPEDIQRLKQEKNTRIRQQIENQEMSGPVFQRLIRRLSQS

[14] = molecular target: ATP-dependent molecular chaperone HSP82 (Candida albicans (strain WO-1) (Yeast), UniProt C4YTQ8); test: steroid-induced GRE reporter decrease in yeast – S. cerevisiae, luminescence, Hsp90 inhibitor project, dose response (AID 2400); type: functional, cell-based;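 also: beta-galactosidase luminescence from glucocorticoid response element reporter as proxy for Hsp90 function; inhibitor potency where signal loss means Hsp90 inhibition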
[15] = molecular target: Mitochondrial peptide methionine sulfoxide reductase (Bos taurus, UniProt P54149); type: functional;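 also: absorbance read-out, biochemical high-throughput dose-response screen for MsrA inhibitors, confirmatory; recombinant bovine MsrA coupled to E. coli TrxB with NADPH and selenocystamine; potency is for inhibitors of MsrA activity on DMSO substrate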
Cytochrome P450 2D6 = Cytochrome P450 2D6 (Homo sapiens, UniProt P10635);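 also: CYP2D6 member of a cytochrome P450 panel assay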
[16] = molecular target: Dual specificity tyrosine-phosphorylation-regulated kinase 1A (Rattus norvegicus, UniProt Q63470); type: biochemical, Homo sapiens

Sequence of Mitochondrial peptide methionine sulfoxide reductase (P54149 whole entry): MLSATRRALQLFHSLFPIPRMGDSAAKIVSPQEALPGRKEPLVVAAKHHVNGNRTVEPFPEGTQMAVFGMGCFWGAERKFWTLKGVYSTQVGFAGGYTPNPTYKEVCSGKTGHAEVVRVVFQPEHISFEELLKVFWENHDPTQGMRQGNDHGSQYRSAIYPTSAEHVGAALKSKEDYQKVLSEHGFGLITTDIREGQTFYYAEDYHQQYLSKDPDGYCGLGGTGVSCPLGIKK
Sequence of Potassium voltage-gated channel subfamily KQT member 2 (O88943 whole entry): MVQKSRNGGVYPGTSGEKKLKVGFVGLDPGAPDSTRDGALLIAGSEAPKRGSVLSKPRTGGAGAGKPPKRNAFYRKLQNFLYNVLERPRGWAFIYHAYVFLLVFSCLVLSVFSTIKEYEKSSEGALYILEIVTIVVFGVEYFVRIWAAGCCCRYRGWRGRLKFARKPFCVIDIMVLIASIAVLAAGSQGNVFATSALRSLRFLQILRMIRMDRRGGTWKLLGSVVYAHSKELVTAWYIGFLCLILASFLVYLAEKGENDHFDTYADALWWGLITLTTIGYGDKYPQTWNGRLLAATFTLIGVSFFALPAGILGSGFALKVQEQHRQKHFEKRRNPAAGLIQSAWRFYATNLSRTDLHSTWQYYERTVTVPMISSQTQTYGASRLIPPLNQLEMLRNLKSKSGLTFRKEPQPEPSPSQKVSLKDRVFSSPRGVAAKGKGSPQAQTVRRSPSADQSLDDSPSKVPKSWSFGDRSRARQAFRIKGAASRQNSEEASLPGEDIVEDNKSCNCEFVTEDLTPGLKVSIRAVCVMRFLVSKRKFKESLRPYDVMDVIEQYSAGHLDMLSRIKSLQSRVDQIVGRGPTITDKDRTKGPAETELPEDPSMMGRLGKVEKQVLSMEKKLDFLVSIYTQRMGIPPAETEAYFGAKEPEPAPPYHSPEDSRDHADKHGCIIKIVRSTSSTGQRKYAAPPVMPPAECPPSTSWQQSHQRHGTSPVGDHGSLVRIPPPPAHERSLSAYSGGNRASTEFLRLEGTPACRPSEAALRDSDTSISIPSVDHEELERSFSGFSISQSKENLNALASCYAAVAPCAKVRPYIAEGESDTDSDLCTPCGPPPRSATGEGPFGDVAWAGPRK
Sequence of Cytochrome P450 2D6 (P10635 whole entry): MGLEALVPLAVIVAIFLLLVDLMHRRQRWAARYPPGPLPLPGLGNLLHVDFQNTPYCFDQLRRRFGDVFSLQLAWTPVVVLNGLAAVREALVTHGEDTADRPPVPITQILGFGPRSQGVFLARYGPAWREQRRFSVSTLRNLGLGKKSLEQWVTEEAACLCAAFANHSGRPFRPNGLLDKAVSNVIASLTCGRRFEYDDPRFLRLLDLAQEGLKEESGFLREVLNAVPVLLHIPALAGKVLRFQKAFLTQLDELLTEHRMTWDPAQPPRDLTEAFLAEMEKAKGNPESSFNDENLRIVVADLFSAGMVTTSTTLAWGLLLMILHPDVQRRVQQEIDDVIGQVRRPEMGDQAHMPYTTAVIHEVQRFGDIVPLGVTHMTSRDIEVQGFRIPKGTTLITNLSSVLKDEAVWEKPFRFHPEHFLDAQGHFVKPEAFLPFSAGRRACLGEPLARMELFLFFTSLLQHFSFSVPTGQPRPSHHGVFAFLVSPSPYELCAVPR
Sequence of ATP-dependent molecular chaperone HSP82 (C4YTQ8 whole entry): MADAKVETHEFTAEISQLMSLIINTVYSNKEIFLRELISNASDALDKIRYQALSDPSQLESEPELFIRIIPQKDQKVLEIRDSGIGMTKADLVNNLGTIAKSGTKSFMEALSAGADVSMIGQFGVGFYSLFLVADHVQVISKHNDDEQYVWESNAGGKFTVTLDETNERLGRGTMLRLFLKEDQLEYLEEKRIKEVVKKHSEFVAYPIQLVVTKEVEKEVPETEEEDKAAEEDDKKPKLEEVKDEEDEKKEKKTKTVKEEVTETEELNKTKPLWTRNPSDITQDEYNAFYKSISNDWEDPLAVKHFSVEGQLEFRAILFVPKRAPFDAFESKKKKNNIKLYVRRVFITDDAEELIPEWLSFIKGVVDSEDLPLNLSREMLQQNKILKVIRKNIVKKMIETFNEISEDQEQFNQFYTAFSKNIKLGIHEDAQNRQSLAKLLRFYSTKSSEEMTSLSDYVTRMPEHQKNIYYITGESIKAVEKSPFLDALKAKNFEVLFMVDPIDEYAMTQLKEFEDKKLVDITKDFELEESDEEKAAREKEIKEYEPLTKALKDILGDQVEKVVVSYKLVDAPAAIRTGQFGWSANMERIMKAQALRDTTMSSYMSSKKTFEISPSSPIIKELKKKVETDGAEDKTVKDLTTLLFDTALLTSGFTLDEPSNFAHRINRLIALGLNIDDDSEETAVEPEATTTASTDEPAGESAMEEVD

Compound: CCOc1ccc(/N=C/c2c(C)[nH]n(-c3nc4ccccc4[nH]3)c2=O)cc1
EC50 (BJ [1]): > 133 µM (inactive)
EC50 (BJ [2]): 4.74 µM (inconclusive)
EC50 (BJ [3]): 2.41 µM (active)
EC50 (BJ [4]): 1.22 µM (active)
EC50 [5]: 2.52 µM (active)
AC50 (INS1): 1.98 µM (active)

IC50 [6]: > 100 µM (inactive)
Compound: Cc1cccc(C)c1NC(=O)Cn1cc(C=O)c2ccccc21

IC50 [7]: > 99 µM (inactive)
IC50 (Caspase-3): > 99 µM (inactive)
IC50 [9]: > 99 µM (inactive)
Compound: COc1ccc(C2CCCN2C(=O)c2sc3ccccc3c2Cl)cc1OC (stereo unspecified)
IC50 [8]: > 99 µM (inactive)

Compound: COc1cc(-c2cc(C(=O)Nc3ccccc3N3CCOCC3)c3ccccc3n2)cc(OC)c1OC
IC50 [10]: 0.11 µM (active)
IC50 (H9c2): > 79 µM (inactive)

Compound: CS(=O)(=O)NN1C(=O)c2ccccc2NC1c1cccc2cccnc12 (stereo unspecified)
EC50 [11]: 0.697 µM (active)
EC50 [12]: > 160 µM (inactive)
EC50 [13]: > 180 µM (inactive)
EC50 [14]: > 160 µM (inactive)

IC50 [7]: > 99 µM (inactive)
IC50 (Caspase-3): > 99 µM (inactive)
IC50 [9]: > 99 µM (inactive)
Compound: Cc1cccc(N/N=C/c2cn(Cc3ccccc3)c3ccccc23)c1
IC50 [8]: > 99 µM (inactive)

IC50 [10]: 0.0922 µM (active)
Compound: Cc1ccccc1NC(=O)c1ccccc1N(C)S(=O)(=O)c1ccccc1

IC50 [15]: 155 µM (inactive)
Compound: Cc1cccc(/N=c2\oc3cc(O)ccc3cc2C(N)=O)c1

Compound: COc1cc2c(cc1O)C[C@H]1c3c(cc(O)c(OC)c3-2)CCN1C [BOLDINE]
AC50 (Cytochrome P450 2D6): 6.31 µM (inconclusive)
IC50 [15]: 47.8 µM (inactive)
AC50 [16]: 4.84 µM (active)
